How the values were obtained:
Assay type in all cases: functional
Mus musculus [1] = organism: Mus musculus; experiment: Tested for potentiation of yohimbine toxicity in aggregated mice(Y)
Mus musculus [2] = organism: Mus musculus; experiment: Tested for stereotyped gnawing and licking behavior of mice pretreated with apomorphine (AG)
Mus musculus [3] = organism: Mus musculus; experiment: Prolongation of hypoxic survival time (HS) in mice
Mus musculus [4] = organism: Mus musculus; experiment: Tested for antagonism of oxotremorine hypothermia (OX) in mice
Mus musculus [5] = organism: Mus musculus; experiment: Tested for potentiation of gamma-butyrolactone induced sleep (gamma-B) in mice
Mus musculus [6] = organism: Mus musculus; experiment: Tested for antagonism of pentylenetetrazole-induced clonic convulsions (P) in mice
Mus musculus [7] = organism: Mus musculus; experiment: Tested for antagonism of bicuculline-induced tonic-extensor convulsions (B) in mice
Mus musculus [8] = organism: Mus musculus; experiment: Tested for antagonism of nicotine-induced death (D) in mice
Mus musculus [9] = organism: Mus musculus; experiment: Tested for antagonism of nicotine-induced tonic extensor convulsions (TE) in mice

Compound	ED50 (Mus musculus [1]) [mg/kg]	ED50 (Mus musculus [2]) [mg/kg]	ED50 (Mus musculus [3]) [mg/kg]	ED50 (Mus musculus [4]) [mg/kg]	ED50 (Mus musculus [5]) [mg/kg]	ED50 (Mus musculus [6]) [mg/kg]	ED50 (Mus musculus [7]) [mg/kg]	ED50 (Mus musculus [8]) [mg/kg]	ED50 (Mus musculus [9]) [mg/kg]
CN(C)CCc1nnc2n1-c1ccc(Br)cc1C(c1ccccn1)=NC2	4	9	> 50	4	10	20	> 50	–	–
CN(C)CCc1nnc2n1-c1ccc(Br)cc1C(c1ccccc1)=NC2	3	> 50	5	0.9	5	5	7	–	–
C#CCN(C)Cc1nnc2n1-c1ccccc1C(c1ccccc1Cl)=NC2	> 50	> 50	3	> 50	8	2	2	–	–
CCN(CC)CCc1nnc2n1-c1ccc(Cl)cc1C(c1ccccc1)=NC2	> 50	> 50	40	42	15	25	> 50	2	2
CC(N)Cc1nnc2n1-c1ccc(Br)cc1C(c1ccccn1)=NC2 (stereo not drawn)	7	20	> 50	> 50	40	> 50	> 50	–	–
CN(C)Cc1nnc2n1-c1ccc(Cl)cc1/C(c1ccccc1)=N\CC2	> 50	> 50	–	> 50	15	> 50	> 50	–	> 100
CN1CCN(Cc2nnc3n2-c2ccc(Cl)cc2C(c2ccccc2)=NC3)CC1	> 100	> 100	50	> 100	20	100	100	5	4.5
CN(C)OCc1nnc2n1-c1ccc(Cl)cc1C(c1ccccc1)=NC2	> 50	> 50	> 0.2	> 50	0.1	0.2	0.2	–	–
CN(C)CCc1nnc2cc(-c3ccccc3)c3cc(Cl)ccc3n12	40	> 50	–	> 50	> 50	> 50	> 50	–	–
CN(C)CCc1nnc2n1-c1ccccc1C(c1ccccc1)=NC2	40	20	> 50	10	30	> 50	> 50	–	–
CC(N)Cc1nnc2n1-c1ccccc1C(c1ccccc1Cl)=NC2 (stereo not drawn)	20	> 50	10	> 50	> 50	> 50	> 50	–	–
CN(C)CCCc1nnc2n1-c1ccc(Cl)cc1C(c1ccccc1Cl)=NC2	25	> 50	2.2	25	0.2	2.2	2.6	–	–
CCN(CC)Cc1nnc2n1-c1ccc(Cl)cc1C(c1ccccc1)=NC2	–	–	> 50	–	0.6	3.1	2.6	0.08	0.08
Clc1ccc2c(c1)C(c1ccccc1)=NCc1nnc(CN3CCN(c4ccccc4)CC3)n1-2	> 30	> 30	> 50	> 30	> 30	> 30	> 30	159	159
Clc1ccc2c(c1)C(c1ccccc1)=NCc1nnc(CCCN3CCCC3)n1-2	42	25	> 50	> 50	35.4	4.4	> 50	16	14
NCCc1nnc2n1-c1ccc(Br)cc1C(c1ccccc1)=NC2	20	> 50	> 50	7	30	> 50	20	–	–
C[N+](C)([O-])Cc1nnc2n1-c1ccc(Cl)cc1C(c1ccccc1)=NC2	> 50	> 50	5.3	5.3	0.6	0.3	0.8	–	–
CSc1ccc2c(c1)C(c1ccccc1)=NCc1nnc(CN(C)C)n1-2	40	> 50	> 50	10	10	9	10	–	–
CN(C)Cc1nnc2n1-c1ccc(Cl)cc1C(c1ccccc1)=NC2 [ADINAZOLAM]	–	–	5	–	1.6	0.9	0.7	0.13	–
CN(C)CCCN1c2ccccc2CCc2ccccc21 [IMIPRAMINE]	–	0.9	> 50	1.3	–	–	21	7	7
